# Measurements: US7795244B2, “Penem prodrugs” (priority 2006, dated 2010)
# Several values for one entry are separate records, joined by “and”; a condition that tells them apart may be missing. Equal values may be shown once.
# Columns and labels:
# [1] = Liver S9 conversion efficiency; assay type: in vitro ADME, human; settings: liver S9 experiments
# [2] = Stability in the presence of porcine pancrelipase (PPE); assay type: in vitro ADME; settings: pig, porcine pancrelipase (ku-zyme HP) in phosphate buffer, 50 μM substrate, pH 7.4, 37° C.
# [3] = tested on: porcine pancrelipase (PPE); test: as above; assay type: in vitro ADME
# Equilibrium solubility = assay type: physicochemical; settings: aqueous buffer, thermodynamic from solid, 25 mM phosphate buffer (pH 5), ambient temperature / 25° C.
# Protocol: Vials containing excess prodrug in phosphate buffer were rotated for up to 48 hours. After the equilibrium period, samples were pulled, filtered through 0.45 μm Gelman Acrodisc Nylon syringe filter and analyzed for drug concentration using HPLC. The HPLC conditions were: Column. C18, SymmetryShield RP, Waters, 4.6×150 mm, 3.5 micron; Mobile phase A: Acetonitrile; Mobile phase B: 0.1% TFA in water; Flow rate, 1 mL/min; Run Time: 30 min Inj. vol. 20 μL; Detection: 210 nm; Dissolving solvent: Acetonitrile/water (50:50 v:v).
# H. influenzae BLNAR = test: Gerbil otitis media model; settings: Gerbil otitis media vs. H. influenzae BLNAR, oral TID for two days from 18 h post-infection, bacterial levels in middle ear fluid day four, repeat experiments
# K. pneumoniae 6485 = test: Murine acute systemic infection model; settings: Murine acute systemic infection vs. K. pneumoniae 6485; oral BID; survival day four post-infection; repeat experiments
# S. pneumoniae 1095 [4] = test: Murine acute systemic infection model; settings: Murine acute systemic infection vs. S. pneumoniae 1095; oral BID; survival day four post-infection; repeat experiments
# S. pneumoniae 1095 [5] = test: Murine respiratory tract infection model; settings: Murine respiratory tract infection vs. S. pneumoniae 1095; oral BID for two days from 18 h post-infection; survival day ten; repeat experiments
# [6] = Stability in human intestinal juice (HIJ); settings: pooled human intestinal juice (4 subjects), buffered, pH 7.4
# [7] = tested on: Staphylococcus saprophyticus; test: MIC90 in vitro activity of sulopenem; assay type: cell-based
# Alloiococcus otitidis = test: MIC90 in vitro activity of sulopenem; assay type: cell-based; settings: Alloiococcus otitis
# [8] = tested on: Streptococcus pyogenes (Group A); test: MIC90 in vitro activity of sulopenem; assay type: cell-based
# [9] = tested on: Streptococcus bovis (Group D); test: MIC90 in vitro activity of sulopenem; assay type: cell-based; settings: Streptococcus equinus
# [10] = tested on: Viridans Streptococcus group; test: MIC90 in vitro activity of sulopenem; assay type: cell-based
# [11] = tested on: Streptococcus pneumoniae penicillin-susceptible; test: MIC90 in vitro activity of sulopenem; assay type: cell-based
# [12] = tested on: Streptococcus pneumoniae penicillin-intermediate; test: MIC90 in vitro activity of sulopenem; assay type: cell-based
# [13] = tested on: Streptococcus pneumoniae penicillin-resistant; test: MIC90 in vitro activity of sulopenem; assay type: cell-based
# [14] = tested on: Streptococcus pneumoniae levofloxacin-resistant; test: MIC90 in vitro activity of sulopenem; assay type: cell-based
# Klebsiella oxytoca = test: MIC90 in vitro activity of sulopenem; assay type: cell-based
# Protocol: (§1) The in vitro activity of sulopenem (the parent acid (5R,6S)-6-[(1R)-1-hydroxyethyl]-7-oxo-3-[[(1R3S)-tetrahydro-1-oxido-3thienyl]thio]4-thia-1-azabicyclo[3.2.0]hept-2-ene-2-carboxylic acid) was evaluated against pathogens involved in community and hospital infections, as summarized in Table 1. .
# Klebsiella pneumoniae = test: MIC90 in vitro activity of sulopenem; assay type: cell-based
# Protocol: as §1
# Listeria monocytogenes = test: MIC90 in vitro activity of sulopenem; assay type: cell-based
# Protocol: as §1
# Prevotella spp = test: MIC90 in vitro activity of sulopenem; assay type: cell-based
# Protocol: as §1
# Salmonella/Shigella = test: MIC90 in vitro activity of sulopenem; assay type: cell-based
# Protocol: as §1
# [15] = tested on: Staphylococcus aureus oxacillin-S; test: MIC90 in vitro activity of sulopenem; assay type: cell-based
# Protocol: as §1
# [16] = tested on: Streptococcus agalactiae (Group B); test: MIC90 in vitro activity of sulopenem; assay type: cell-based
# Protocol: as §1
# [17] = tested on: Corynebacterium spp (not C. jeikeium); test: MIC90 in vitro activity of sulopenem; assay type: cell-based
# Citrobacter diversus = test: MIC90 in vitro activity of sulopenem; assay type: cell-based; settings: Citrobacter koseri
# Citrobacter freundii = test: MIC90 in vitro activity of sulopenem; assay type: cell-based
# Enterobacter aerogenes = test: MIC90 in vitro activity of sulopenem; assay type: cell-based; settings: Klebsiella aerogenes
# Enterobacter cloacae = test: MIC90 in vitro activity of sulopenem; assay type: cell-based
# Escherichia coli = test: MIC90 in vitro activity of sulopenem; assay type: cell-based
# [18] = tested on: Klebsiella pneumoniae ESBL+; test: MIC90 in vitro activity of sulopenem; assay type: cell-based
# Morganella morganii = test: MIC90 in vitro activity of sulopenem; assay type: cell-based
# Proteus mirabilis = test: MIC90 in vitro activity of sulopenem; assay type: cell-based
# [19] = tested on: Haemophilus influenzae β-lactamase−; test: MIC90 in vitro activity of sulopenem; assay type: cell-based
# [20] = tested on: Haemophilus influenzae β-lactamase+; test: MIC90 in vitro activity of sulopenem; assay type: cell-based
# [21] = tested on: Moraxella catarrhalis β-lactamase−; test: MIC90 in vitro activity of sulopenem; assay type: cell-based
# [22] = tested on: Moraxella catarrhelis β-lactamase+; test: MIC90 in vitro activity of sulopenem; assay type: cell-based
# Legionella pneumophila = test: microbe, parasite or virus in culture; assay type: cell-based
# Neisseria meningitides = test: MIC90 in vitro activity of sulopenem; assay type: cell-based
# Becteroides fragilis = test: MIC90 in vitro activity of sulopenem; assay type: cell-based
# Clostridium perfringens = test: microbe, parasite or virus in culture; assay type: cell-based
# [23] = in vivo, po; cited from earlier work
smiles,measurement,setting,value
"CCC(CC)C(=O)OCOC(=O)C1=C(S[C@H]2CC[S@@+]([O-])C2)S[C@@H]2[C@@H]([C@@H](C)O)C(=O)N12 [Compound 1, (2-Ethyl-1-oxobutoxy)methyl (5R,6S)-6-[(1R)-1-hydroxyethyl]-7-oxo-3-[[(1R,3S)-tetrahydro-1-oxido-3-thienyl]thio]-4-thia-1-azabicyclo[3.2.0]hept-2-ene-2-carboxylate]",conversion to sulopenem (in words),[1],fully converted to sulopenem
same,half-life at 50 µM,"[2]; pH 7.4, ku-zyme Lot 1",11.7 ± 3.8 min
same,half-life at 50 µM,"[2]; pH 7.4, ku-zyme lot 2",17.9 min
same,PPE half-life (in words),[3],relatively long PPE half-life
same,solubility,Equilibrium solubility,1210 µg/mL
same,intrinsic clearance in human intestinal juice (in words),,relatively low intrinsic clearance
same,HIJ Clint (avg),"human, pH 7.4",0.07 mL/min
same,ED50,H. influenzae BLNAR,4.5 mg/kg
same,ED50,"H. influenzae BLNAR; Haemophilus influenzae, in Meriones unguiculatus, po",8.7 mg/kg
same,PD50,K. pneumoniae 6485,88.6 mg/kg and 63.4 mg/kg
same,PD50,S. pneumoniae 1095 [4],12.5 mg/kg and 6.3 mg/kg
same,PD50,S. pneumoniae 1095 [5],16.4 mg/kg and 12.5 mg/kg and 9.5 mg/kg
same,Km,[6],91 µM
"C[C@@H](O)[C@H]1C(=O)N2C(C(=O)O)=C(S[C@H]3CC[S@@+]([O-])C3)S[C@H]12 [Sulopenem, (5R,6S)-6-[(1R)-1-hydroxyethyl]-7-oxo-3-[[(1R,3S)-tetrahydro-1-oxido-3-thienyl]thio]-4-thia-1-azabicyclo[3,2.0]hept-2-ene-2-carboxylic acid]",MIC90,[7],0.5 µg/mL
same,MIC90,Alloiococcus otitidis,1 µg/mL
same,MIC90,[8],0.03 µg/mL
same,MIC90,[9],0.06 µg/mL
same,MIC90,[10],0.25 µg/mL
same,MIC90,[11],0.03 µg/mL
same,MIC90,[12],0.25 µg/mL
same,MIC90,[13],1 µg/mL
same,MIC90,[14],0.5 µg/mL
same,MIC90,Klebsiella oxytoca,0.125 µg/mL
same,MIC90,Klebsiella pneumoniae,0.125 µg/mL
same,MIC90,Listeria monocytogenes,0.125 µg/mL
same,MIC90,Prevotella spp,0.125 µg/mL
same,MIC90,Salmonella/Shigella,0.125 µg/mL
same,MIC90,[15],0.125 µg/mL
same,MIC90,[16],0.125 µg/mL
same,MIC90,[17],2 µg/mL
same,MIC90,Citrobacter diversus,0.06 µg/mL
same,MIC90,Citrobacter freundii,0.25 µg/mL
same,MIC90,Enterobacter aerogenes,0.5 µg/mL
same,MIC90,Enterobacter cloacae,1 µg/mL
same,MIC90,Escherichia coli,0.06 µg/mL
same,MIC90,[18],0.25 µg/mL
same,MIC90,Morganella morganii,2 µg/mL
same,MIC90,Proteus mirabilis,0.5 µg/mL
same,MIC90,[19],0.25 µg/mL
same,MIC90,[20],0.5 µg/mL
same,MIC90,[21],0.03 µg/mL
same,MIC90,[22],0.125 µg/mL
same,MIC90,Legionella pneumophila,0.06 µg/mL
same,MIC90,Neisseria meningitides,0.06 µg/mL
same,MIC90,Becteroides fragilis,0.5 µg/mL
same,MIC90,Clostridium perfringens,0.06 µg/mL
same,oral bioavailability (in words),[23],not appreciably orally bioavailable
